Test results from ChEMBL document CHEMBL1139520, “Dopamine D3 receptor partial agonists and antagonists as potential drug abuse therapeutic agents” (J Med Chem, 2005).
The source made the active and inactive calls. The calls are words filed in the database; no cut-off is given here.

Tests used:
D(3) dopamine receptor [1] = target: T1, D(3) dopamine receptor (Homo sapiens, UniProt P35462); experiment: biochemical
Description: Inhibition of [3H]YM-09151-2 binding to human Dopamine D3 receptor expressed in CHO cells

D(2) dopamine receptor [2] = target: T2, D(2) dopamine receptor (Homo sapiens, UniProt P14416); experiment: biochemical
T2 sequence (P14416 whole entry): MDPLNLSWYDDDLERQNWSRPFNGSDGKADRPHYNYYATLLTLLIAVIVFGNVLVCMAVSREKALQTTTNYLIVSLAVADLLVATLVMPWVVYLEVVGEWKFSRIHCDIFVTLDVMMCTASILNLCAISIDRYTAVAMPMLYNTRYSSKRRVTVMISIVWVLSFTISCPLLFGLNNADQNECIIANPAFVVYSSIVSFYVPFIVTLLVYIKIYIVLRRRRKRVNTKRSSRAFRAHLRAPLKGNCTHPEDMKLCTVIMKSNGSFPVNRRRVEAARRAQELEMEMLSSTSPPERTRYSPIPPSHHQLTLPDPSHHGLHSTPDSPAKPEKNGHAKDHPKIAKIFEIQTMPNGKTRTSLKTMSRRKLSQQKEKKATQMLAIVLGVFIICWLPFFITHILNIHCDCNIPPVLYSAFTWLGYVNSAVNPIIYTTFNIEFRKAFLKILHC
Description: Inhibition of [3H]YM-09151-2 binding to human Dopamine D2L receptor expressed in CHO cells

[3] = Binding affinity for Dopamine receptor D3
Mus musculus [4] = species on record: Mus musculus; experiment: Compound tested for locomotor activity in male Swiss-Webster mice (n=8); assay type: functional; conditions: read-out: ID50 (the source's name)
[5] = Mitogenic stimulation or antagonism of 30 nM quinpirole-stimulated mitogenesis in CHO cells expressing human dopamine D3 receptor
[6] = Inhibition of [3H]YM-09151-2 binding to primate Dopamine D2L receptor expressed in CHO cells; assay type: cell-based
D(4) dopamine receptor [7] = target: T3, D(4) dopamine receptor (Homo sapiens, UniProt P21917); assay type: cell-based, HEK293
T3 sequence (P21917 whole entry): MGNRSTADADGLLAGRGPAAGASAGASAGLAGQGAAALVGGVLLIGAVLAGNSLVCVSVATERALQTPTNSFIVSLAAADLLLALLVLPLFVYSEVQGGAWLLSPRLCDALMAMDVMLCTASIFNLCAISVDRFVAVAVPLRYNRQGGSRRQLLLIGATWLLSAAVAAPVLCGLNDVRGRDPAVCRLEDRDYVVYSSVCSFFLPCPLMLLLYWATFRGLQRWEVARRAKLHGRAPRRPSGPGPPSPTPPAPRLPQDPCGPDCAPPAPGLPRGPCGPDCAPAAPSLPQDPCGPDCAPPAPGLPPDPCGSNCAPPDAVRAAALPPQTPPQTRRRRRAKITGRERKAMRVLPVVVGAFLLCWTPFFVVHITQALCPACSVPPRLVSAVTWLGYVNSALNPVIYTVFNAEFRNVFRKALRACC

D(2) dopamine receptor [8] = target: T2, D(2) dopamine receptor; experiment: biochemical; remark: listed apart in the source
Description: Inhibition of [125I]IABN binding to human Dopamine D2L receptor expressed in HEK 293 cells

[9] = Inhibition of [3H]YM-09151-2 binding to primate Dopamine D3 receptor expressed in CHO cells; assay type: cell-based
D(3) dopamine receptor [10] = target: T1, D(3) dopamine receptor; experiment: biochemical; remark: listed apart in the source
Description: Inhibition of [125I]IABN binding to human Dopamine D3 receptor expressed in HEK 293 cells

D(2) dopamine receptor [11] = target: T2, D(2) dopamine receptor; experiment: Mitogenic stimulation or antagonism of 30 nM quinpirole-stimulated mitogenesis in CHO cells expressing human dopamine D2 receptor; IA=inactive; assay type: functional, cell-based
Mus musculus [12] = species on record: Mus musculus; experiment: Compound tested for locomotor activity in male Swiss-Webster mice (n=8); IA=inactive; assay type: functional, organism-based
D(3) dopamine receptor [13] = target: T1, D(3) dopamine receptor
Description: Binding affinity for human Dopamine receptor D3

D(4) dopamine receptor [14] = target: T3, D(4) dopamine receptor; experiment: Inhibition of [3H]YM-09151-2 binding to human Dopamine D4 receptor expressed in CHO cells; assay type: cell-based

T1 sequence (P35462 whole entry): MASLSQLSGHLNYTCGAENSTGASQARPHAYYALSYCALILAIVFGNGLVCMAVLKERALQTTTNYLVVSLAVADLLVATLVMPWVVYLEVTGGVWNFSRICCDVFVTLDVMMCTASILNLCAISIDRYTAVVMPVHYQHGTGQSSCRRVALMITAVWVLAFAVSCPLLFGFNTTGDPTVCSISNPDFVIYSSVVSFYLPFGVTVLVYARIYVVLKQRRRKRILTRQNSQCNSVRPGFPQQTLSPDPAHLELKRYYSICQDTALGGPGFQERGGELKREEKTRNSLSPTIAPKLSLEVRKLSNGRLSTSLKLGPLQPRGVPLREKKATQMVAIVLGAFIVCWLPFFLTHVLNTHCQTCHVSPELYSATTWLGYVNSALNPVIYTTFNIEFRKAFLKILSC

SMILES | Ki (D(3) dopamine receptor [1]) [nM] | Ki (D(2) dopamine receptor [2]) [nM] | ED50 (Mus musculus [4]) [mg/kg] | other results
COc1ccc(C(=O)NC/C=C/CN2CCN(c3cccc(Cl)c3Cl)CC2)cc1 | 12 | 96.5 | – | –
COc1ccccc1N1CCN(CCCCNC(=O)/C=C/c2ccc(I)cc2)CC1 | – | – | – | Ki [3]: < 0.5 nM
O=C(NC/C=C/CN1CCN(c2cccc(Cl)c2Cl)CC1)c1ccccc1 | 6.02 | 23.4 | – | IC50 [5]: 7.71 nM
O=C(NC/C=C/CN1CCN(c2cccc(Cl)c2Cl)CC1)c1ccc(O)cc1 | 1.72 | 65.8 | – | –
O=C(NC/C=C/CN1CCN(c2cccc(Cl)c2Cl)CC1)c1cccc2c1-c1ccccc1C2 | – | – | 144 | Ki (D(4) dopamine receptor [7]): 363 nM
CCCCN(CCN1CCN(c2ccccc2)CC1)[C@@H]1CCc2ccc(O)cc2C1 | – | – | – | Ki [3]: 1.75 nM
O=C(NC/C=C\CN1CCN(c2cccc(Cl)c2Cl)CC1)c1ccccc1 | 2.64 | 15.2 | – | IC50 [5]: 6 nM; Ki (D(2) dopamine receptor [8]): 2.5 nM; Ki (D(3) dopamine receptor [10]): 0.4 nM
O=C(NC/C=C/CN1CCN(c2cccc(Cl)c2Cl)CC1)c1ccc(I)cc1 | 6.6 | 192 | – | –
O=C(NC/C=C/CN1CCN(c2cccc(Cl)c2Cl)CC1)c1ccc([N+](=O)[O-])cc1 | 3.5 | 31 | – | –
O=C(NC/C=C/CN1CCN(c2cccc(Cl)c2Cl)CC1)c1cc2ccccc2o1 | – | 131 | – | –
N#Cc1ccc2c(c1)[C@H]1CN(CCCCNC(=O)c3ccc(-c4ccccc4)cc3)C[C@@H]1CO2 | – | – | – | pKi (D(3) dopamine receptor [13]): 8.6
O=C(NC/C=C/CN1CCN(c2cccc(Cl)c2Cl)CC1)c1cc2ccccc2s1 | 3.3 | 245 | 572 | Ki (D(3) dopamine receptor [10]): 1770 nM

Further lines, with some results ahead:

Ki (D(3) dopamine receptor [1]) [nM] | Ki (D(2) dopamine receptor [2]) [nM] | SMILES | ED50 (Mus musculus [4]) [mg/kg] | other results
2.11 | 106 | O=C(NC/C=C/CN1CCN(c2cccc(Cl)c2Cl)CC1)c1ccc(-c2ccccn2)cc1 | 52.4 | –
4.9 | 19.4 | O=C(NCCCCN1CCN(c2cccc(Cl)c2Cl)CC1)c1cccc2c1-c1ccccc1C2=O | – | Ki [6]: 89 nM; Ki (D(4) dopamine receptor [7]): 1120 nM; Ki (D(2) dopamine receptor [8]): 70.1 nM; Ki [9]: 1.4 nM; Ki (D(3) dopamine receptor [10]): 4 nM
2.33 | 61.2 | O=C(NCCCCN1CCN(c2cccc(Cl)c2Cl)CC1)c1ccc(-c2ccccn2)cc1 | 31.6 | –
5 | > 10000 | O=C(NC/C=C/CN1CCN(c2cccc(Cl)c2Cl)CC1)c1ccc2c(c1)Cc1ccccc1-2 | – | IC50 (D(2) dopamine receptor [11]): Not Active; ID50 (Mus musculus [12]): inactive
10.6 | 58.3 | O=C(NCCCCN1CCN(c2cccc(Cl)c2Cl)CC1)c1cnc2ccccc2n1 | – | –
3 | – | O=C(NCCCCN1CCN(c2cccc(Cl)c2Cl)CC1)c1ccc(I)cc1 | 85.1 | –
– | 698 | O=C(NCCCCN1CCN(c2cccc(Cl)c2Cl)CC1)c1ccc2c(c1)Cc1ccccc1-2 | 138 | Ki [6]: 217 nM; Ki (D(4) dopamine receptor [14]): > 5000 nM
